We go through nine molecules from ChEMBL document CHEMBL1201862, “PubChem BioAssay data set” (2004).

Calls of active or inactive are those of the source.

One experiment concerns Danio rerio. As to the kind of experiment: In Vivo Angiogenesis Dose-Response Confirmation. [Related pubchem assays: 732 (Assay preceding this confirmatory assay.)]. The format is functional, organism-based.
The target in another experiment is T1, fMet-Leu-Phe receptor (Homo sapiens, UniProt P21462).
T1 sequence (P21462 whole entry): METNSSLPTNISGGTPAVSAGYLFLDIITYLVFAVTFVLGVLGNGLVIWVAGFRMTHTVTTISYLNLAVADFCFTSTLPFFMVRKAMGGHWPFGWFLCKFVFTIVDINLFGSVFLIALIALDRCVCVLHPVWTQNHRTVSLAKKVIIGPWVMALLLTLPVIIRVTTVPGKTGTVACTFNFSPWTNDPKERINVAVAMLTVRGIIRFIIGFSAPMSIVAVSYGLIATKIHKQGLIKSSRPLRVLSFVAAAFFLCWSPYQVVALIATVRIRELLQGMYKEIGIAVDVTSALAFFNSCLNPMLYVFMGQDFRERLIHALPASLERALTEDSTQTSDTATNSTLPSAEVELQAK
Description: formyl peptide receptor binders – dose response (AID 519). The format is functional.

Experiment [1] has as its target T2, Heat shock factor protein 1 (Mus musculus, UniProt P38532).
T2 sequence (P38532 whole entry): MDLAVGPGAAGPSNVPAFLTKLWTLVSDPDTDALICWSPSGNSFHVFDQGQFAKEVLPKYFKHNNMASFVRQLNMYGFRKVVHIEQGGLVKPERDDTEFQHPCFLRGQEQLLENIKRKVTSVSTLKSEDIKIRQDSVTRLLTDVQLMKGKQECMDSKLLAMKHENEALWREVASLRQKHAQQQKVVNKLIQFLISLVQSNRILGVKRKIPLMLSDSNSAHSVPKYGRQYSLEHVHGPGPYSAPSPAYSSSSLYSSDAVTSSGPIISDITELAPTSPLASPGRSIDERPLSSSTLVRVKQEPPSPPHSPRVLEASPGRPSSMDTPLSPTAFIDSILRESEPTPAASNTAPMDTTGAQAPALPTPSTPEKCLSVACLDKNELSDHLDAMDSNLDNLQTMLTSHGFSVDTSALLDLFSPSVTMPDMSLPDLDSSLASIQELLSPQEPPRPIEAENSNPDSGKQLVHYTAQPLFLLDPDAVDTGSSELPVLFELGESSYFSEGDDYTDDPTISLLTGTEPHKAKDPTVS
As to the kind of experiment: enhancement of HSF1-driven luciferase signal – cell-based, NIH3T3, luminescence, dose retest, confirmation (AID 435004).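 Further: stress induced by proteasome inhibitor MG132 added 30 min after compound; luciferase reporter driven by HSF1 response element in NIH3T3 cells; actives raise luminescence as potentiators of the MG132 stress response.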 The format is functional.

Experiment [2] can be described thus: Luminescent dose response cell-based high throughput screening assay for inhibitors of the Janus kinase 2 mutant JAK2V617F. [Related pubchem assays: 1446 (Primary screen.), 1521 (Confirmation assay.), 1486 (Counter screen.)]. The format is functional.
In experiment [3] the target is Bifunctional protein GlmU (Mycobacterium tuberculosis, UniProt P9WMN3). Description: Inhibitors of Mycobacterial Glucosamine-1-phosphate acetyl transferase (GlmU). Secondary screen. Also on record: species or system Mycobacterium tuberculosis H37Rv.
For experiment [4], the target named is 5-hydroxytryptamine receptor 1A (Homo sapiens, UniProt P08908). In kind it is functional.
A short description of experiment [5]: toxicity to human hepatoma HepG2 cells – cell-based, cherry-picked samples, cytotoxicity control, dose response (AID 1159577). In kind it is functional.
A short description of experiment [6]: P. falciparum Dd2 growth inhibitors, dose response, SYBR Green, cherry-picked samples (AID 1159567). In kind it is functional, cell-based.
A short description of experiment [7]: Dd2 malaria parasite growth inhibition potency – SYBR Green, dry powder samples, dose response (AID 1159566).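 Further: potency for growth inhibition with lower SYBR green DNA signal.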 In kind it is functional, cell-based.
A short description of experiment [8]: growth inhibition of PfATP4-mutant resistant parasites – NITD609-resistant line, SYBR Green, dry powder, dose response (AID 1159571).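 Further: parasites synchronized at ring stage by sorbitol before testing.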 In kind it is functional, cell-based.
Experiment [9] can be described thus: growth inhibition of yeast DHODH-expressing 3D7 parasites – SYBR Green, dry powder samples, dose response (AID 1159570).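 Further: parasite growth measured after 72 hours of compound exposure.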 The format is functional, cell-based.
A short description of experiment [10]: HCT116 cell viability decrease, GSK3B pretreatment – CellTiter-Glo, IC50, dose response (AID 1117339). Particulars: HCT-116. The format is functional.
A short description of experiment [11]: RKO cell viability reduction, dose response, CellTiter-Glo luminescence (AID 1117322). The format is functional. (In general: In ATP-based viability assays light output follows the ATP content of the culture.)
Experiment [12] in a line: SNU-C1 cell viability reduction, dose response, CellTiter-Glo luminescence (AID 1117323). In kind it is functional, cell-based.
Experiment [13] in a line: Reduced DLD-1 viability, concentration-response, CellTiter-Glo luminescence (AID 1117352). In kind it is functional.
Experiment [14] is described as follows: CellTiter-Glo luminescence survival assay, SW480 colon tumor line, concentration-response curve, half-maximal inhibitory concentration (AID 1117338). The format is functional.
Experiment [15] is described as follows: cytotoxicity toward Colo320 cells – cell-based, CellTiter-Glo luminescence, IC50, dose response (AID 1117334). The format is functional. The settings on record: COLO 320.
Experiment [16] in a line: cytotoxicity toward HCT116 cells – cell-based, CellTiter-Glo luminescence, IC50, dose response (AID 1117332). Particulars: HCT-116. The format is functional.
A short description of experiment [17]: cytotoxicity toward HT-29 cells – cell-based, CellTiter-Glo luminescence, IC50, dose response (AID 1117330). The format is functional.

Chain of Bifunctional protein GlmU (P9WMN3 whole entry): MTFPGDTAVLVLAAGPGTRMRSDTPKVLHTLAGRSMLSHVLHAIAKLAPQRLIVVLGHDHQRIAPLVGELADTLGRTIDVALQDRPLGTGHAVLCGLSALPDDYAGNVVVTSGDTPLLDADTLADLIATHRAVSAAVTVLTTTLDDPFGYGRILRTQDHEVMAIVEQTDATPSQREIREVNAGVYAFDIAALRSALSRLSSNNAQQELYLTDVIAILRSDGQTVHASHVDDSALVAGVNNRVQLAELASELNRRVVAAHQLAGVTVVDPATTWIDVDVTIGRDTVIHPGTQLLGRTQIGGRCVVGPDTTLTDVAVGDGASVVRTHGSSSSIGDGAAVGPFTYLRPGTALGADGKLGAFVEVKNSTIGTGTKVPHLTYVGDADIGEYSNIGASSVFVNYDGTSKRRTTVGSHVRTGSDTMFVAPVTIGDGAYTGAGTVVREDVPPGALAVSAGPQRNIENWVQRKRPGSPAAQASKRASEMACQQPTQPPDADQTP
Chain of 5-hydroxytryptamine receptor 1A (P08908 whole entry): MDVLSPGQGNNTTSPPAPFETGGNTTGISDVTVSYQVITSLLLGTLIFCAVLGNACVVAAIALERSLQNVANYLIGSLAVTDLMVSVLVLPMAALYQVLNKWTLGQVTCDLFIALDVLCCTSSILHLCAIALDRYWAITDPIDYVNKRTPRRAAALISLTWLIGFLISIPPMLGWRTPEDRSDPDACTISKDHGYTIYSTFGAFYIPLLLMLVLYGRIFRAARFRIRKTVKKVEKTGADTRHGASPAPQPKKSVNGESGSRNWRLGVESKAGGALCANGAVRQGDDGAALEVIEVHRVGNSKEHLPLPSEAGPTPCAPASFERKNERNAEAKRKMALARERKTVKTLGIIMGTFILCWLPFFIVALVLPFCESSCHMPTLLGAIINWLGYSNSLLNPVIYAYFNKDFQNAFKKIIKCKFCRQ

In general, IC50 refers to the midpoint of a concentration-inhibition curve. Take `Cc1ccc2c(c1)/C(=C1/Nc3ccc(Br)cc3/C1=N\O)C(=O)N2`: the half-inhibitory concentration (IC50) in the experiment on Danio rerio was 2.5 µM (active).
A word on the Ki: it is the equilibrium dissociation constant of an inhibitor or competing ligand from its target. As usually defined, the EC50 is the concentration giving half of the maximal effect. For the molecule `Cc1cccc(OCC(=O)Nc2cc(C)ccc2O)c1`, at fMet-Leu-Phe receptor, the Ki was > 66.7 µM (inactive). Besides, the half-maximal effective concentration (EC50) in experiment [1] was 4.61 µM (active). Moreover, the half-inhibitory concentration (IC50) in experiment [2] was 0.676 µM (active).
`Nc1nonc1C(=O)N/N=C/c1ccc(-c2cccc(C(=O)O)c2)o1`: the half-maximal inhibitory concentration (IC50) in experiment [3] is 188 µM (active).
Regarding `CNCCc1c[nH]c2ccccc12`, the half-maximal effective concentration (EC50) in experiment [4] is 5.1 µM (active).
In general, AC50 refers to the concentration giving half of the maximal activity seen. Consider `CCS(=O)(=O)N1CCCCN2[C@H](C1)[C@@H](c1ccc(C#Cc3ccccc3OC)cc1)[C@@H]2CO`, for which the AC50 was > 39 µM (inactive) in experiment [5] and 4.67 µM (active) in experiment [6].
For `COc1ccc2c3c(n(C)c2c1)[C@H](CO)NCC31CCN(Cc2ccc(Cl)cc2)CC1`, the AC50 in experiment [5] was 17.7 µM (active); in [6] it was 0.504 µM (active).
Take `COc1ccc(-c2ccccc2[C@H]2[C@@H](C#N)N(C(=O)NC(C)C)[C@H]2CO)cc1`: the AC50 in [7] was 2.21 µM (active); in experiment [8] it was 4.81 µM (active); in experiment [9], 2.01 µM (active); in experiment [6] it was 2.04 µM (active).
`O=C(O)CCC(=O)OC[C@@H](NC(=O)C(Cl)Cl)[C@H](O)c1ccc([N+](=O)[O-])cc1` [CHLORAMPHENICOL SODIUM SUCCINATE]: the IC50 in experiment [10], in experiment [11], in experiment [12], in [13], in experiment [14] and in [15] was > 20 µM (inactive) each time. For the same molecule, the IC50 in [16] and in experiment [17] was > 20 µM (inactive) in each case.
For the molecule `CCCn1cnc2c1c(=O)n(CCCCC(C)=O)c(=O)n2C` [PROPENTOFYLLINE], the IC50 in [10], in experiment [11], in experiment [12], in experiment [13], in experiment [14] and in experiment [15] was > 20 µM (inactive) throughout. The IC50 in experiment [16] and in experiment [17] was > 20 µM (inactive) each time.
